From ChEMBL document CHEMBL1799912, “Benzodihydrofurans from Cyperus teneriffae” (J Nat Prod, 2011)
Active and inactive are the calls of the source. The calls are words filed in the database; no cut-off is given here.

Assay: Antiestrogenic activity in human MCF7/BUS cells assessed as inhibition of 17beta-estradiol-induced cell proliferation at 10 uM after 6 days by E-Screen test
Assay type: functional, cell-based

Structure (SMILES) | Activity
O=C1CC(c2ccc(O)c(O)c2)Oc2cc(O)cc(O)c21 (configuration not stated) | inactive
C=C(C)[C@@H]1Cc2c(c(OC)c(O)c(C(C)=O)c2OC)O1 | inactive
COc1cc(OC)c2c(c1)O/C(=C\c1ccc(OC)c(O)c1)C2=O | inactive
COc1cc(O)c(CC=C(C)C)c(O)c1C(C)=O | inactive
COc1cc(OC)c2c(c1)O/C(=C\c1ccc(OC)c(OC)c1)C2=O | inactive
C=C(C)[C@@H]1Cc2c(c(OC)c3occ(C)c3c2OC)O1 | inactive
COc1ccc(-c2oc3cc(O)cc(O)c3c(=O)c2O)cc1O | inactive
